Results taken from PubChem BioAssay (NCI).
Where “and” joins values, the source holds several entries; their conditions need not be identical. Equal entries are not always repeated.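 Grown in 96-well plates, cells were treated for 48 hours with each compound at five concentrations. Insufficient inhibition: endpoint recorded as highest concentration tested. GI50 = concentration required for 50% inhibition of growth. At the TGI there is no net growth.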

Tests used:
Assay in all cases: DTP human tumour cell line panel, 48 h
[1] = test system: PC-3 prostate
[2] = test system: HL-60(TB) leukemia
[3] = test system: SF-539 CNS
[4] = test system: SF-295 CNS
[5] = test system: SNB-19 CNS
[6] = test system: OVCAR-5 ovarian
[7] = test system: RPMI-8226 leukemia
[8] = test system: 786-0 renal
[9] = test system: MDA-MB-435
[10] = test system: UACC-62 melanoma

Structure (SMILES): CCOC1Oc2ccccc2C(=O)/C1=C\Nc1ccc(C(=O)O)c(O)c1 (stereo not drawn)
- GI50 [1]: 39.2 µM
- TGI [1]: > 100 µM
- GI50 [2]: 32.7 µM
- TGI [2]: > 100 µM
- GI50 [3]: 25.5 µM
- TGI [3]: 59.5 µM
- GI50 [4]: 21.9 µM
- TGI [4]: 55.4 µM
- GI50 [5]: 28.6 µM
- TGI [5]: 94.4 µM
- GI50 [6]: 43.2 µM
- TGI [6]: > 100 µM
- GI50 [7]: 20 µM
- TGI [7]: > 100 µM
- GI50 [8]: 30.1 µM
- TGI [8]: > 100 µM
- GI50 [9]: 20.4 µM
- TGI [9]: 44.4 µM
- GI50 [10]: 19.6 µM
- TGI [10]: 43.5 µM

Structure (SMILES): O=C(O)CC(S)C(=O)O.[Li+].[Sb] (stereo not drawn)
- GI50 [1]: > 100 µM
- TGI [1]: > 100 µM
- GI50 [2]: > 100 µM
- TGI [2]: > 100 µM
- GI50 [4]: 55.3 µM
- TGI [4]: > 100 µM
- GI50 [5]: > 100 µM
- TGI [5]: > 100 µM
- GI50 [6]: > 100 µM
- TGI [6]: > 100 µM
- GI50 [7]: 63.3 µM
- TGI [7]: > 100 µM
- GI50 [8]: > 100 µM
- TGI [8]: > 100 µM
- GI50 [9]: > 100 µM
- TGI [9]: > 100 µM
- GI50 [10]: > 100 µM
- TGI [10]: > 100 µM

Structure (SMILES): CC(=O)OCC1OC([S-])C(OC(C)=O)C(OC(C)=O)C1OC(C)=O.[Au+].c1ccc(CN2[CH-]N(Cc3ccccc3)C(c3ccccc3)=C2c2ccccc2)cc1
- TGI [1]: 4.73 µM and 1.17 µM
- GI50 [2]: 2.57 µM and 0.573 µM
- TGI [2]: 7.57 µM and 2.35 µM
- GI50 [3]: 2.96 µM and 0.855 µM
- TGI [3]: 10.4 µM and 3.81 µM
- TGI [4]: 20.3 µM and 4.59 µM
- GI50 [5]: 1.7 µM and 0.3 µM
- TGI [5]: 3.18 µM and 1.18 µM
- GI50 [6]: 3.35 µM and 0.783 µM
- TGI [6]: 11.9 µM and 3.1 µM
- TGI [7]: 5.99 µM and 1.93 µM
- GI50 [8]: 1.84 µM and 0.384 µM
- TGI [8]: 3.63 µM and 1.18 µM
- GI50 [9]: 2.94 µM and 0.86 µM
- TGI [9]: 10.4 µM and 3.36 µM
- GI50 [10]: 2.15 µM and 0.249 µM
- TGI [10]: 5.62 µM and 1.14 µM

Structure (SMILES): CC1OC(OC2C(O)C(OCCc3ccc(O)c(O)c3)OC(CO)C2OC(=O)/C=C/c2ccc(O)c(O)c2)C(O)C(O)C1O (stereo not drawn)
- GI50 [1]: > 100 µM
- TGI [1]: > 100 µM
- GI50 [2]: 14.9 µM
- TGI [2]: > 100 µM
- GI50 [3]: 22.9 µM
- TGI [3]: 40.9 µM
- GI50 [4]: 31.5 µM
- TGI [4]: > 100 µM
- GI50 [5]: > 100 µM
- TGI [5]: > 100 µM
- GI50 [6]: 19.6 µM
- TGI [6]: 39 µM
- GI50 [7]: 42.4 µM
- TGI [7]: > 100 µM
- GI50 [8]: 14.5 µM
- TGI [8]: 36.3 µM
- GI50 [9]: 39.7 µM
- TGI [9]: > 100 µM
- GI50 [10]: 19.1 µM
- TGI [10]: 45.5 µM

Structure (SMILES): C=C1C(=O)O[C@H]2[C@H]1CC/C(CNC(=O)C(C)c1ccc(CC(C)C)cc1)=C\CC[C@@]1(C)O[C@@H]21 (stereo partly drawn)
- GI50 [1]: 1.77 µM
- TGI [1]: 3.82 µM
- GI50 [3]: 1.58 µM
- TGI [3]: 3.07 µM
- GI50 [4]: 3.45 µM
- TGI [4]: 14.7 µM
- GI50 [5]: 2.15 µM
- TGI [5]: 5.67 µM
- GI50 [6]: 1.92 µM
- TGI [6]: 4.04 µM
- GI50 [7]: 2.29 µM
- TGI [7]: 6.92 µM
- GI50 [8]: 1.76 µM
- TGI [8]: 3.36 µM
- GI50 [9]: 1.72 µM
- TGI [9]: 3.76 µM
- GI50 [10]: 1.67 µM
- TGI [10]: 3.38 µM

Structure (SMILES): CN(C)c1ccc2cc3c(cc2c1)Oc1ccccc1N3.[Cl][Zn][Cl]
- GI50 [1]: 3.54 µM
- TGI [1]: 14.1 µM
- GI50 [2]: 2.61 µM
- TGI [2]: 7.3 µM
- GI50 [3]: 3.68 µM
- TGI [3]: 15.6 µM
- GI50 [4]: 18 µM
- TGI [4]: 39.7 µM
- GI50 [5]: 20.6 µM
- TGI [5]: 52.2 µM
- GI50 [6]: 1.96 µM
- TGI [6]: 6.35 µM
- GI50 [7]: 3.98 µM
- TGI [7]: 31 µM
- GI50 [8]: 2.85 µM
- TGI [8]: 9.48 µM
- GI50 [9]: 1.98 µM
- TGI [9]: 4.19 µM
- GI50 [10]: 3.43 µM
- TGI [10]: 13.4 µM

Structure (SMILES): CC[C@H](C)[C@H](NC(=O)[C@H]1CCCCN1C)C(=O)N(C)[C@H](C[C@@H](OC(C)=O)c1nc(C(=O)NC23C4C5C2C2C3C4C52C(=O)OC)cs1)C(C)C (stereo partly drawn)
- GI50 [1]: 0.00263 µM and 0.0025 µM
- TGI [1]: > 25 µM
- GI50 [2]: 0.000317 µM and < 0.0025 µM
- TGI [2]: 0.00196 µM and < 0.0025 µM
- GI50 [3]: 0.00115 µM and 0.0025 µM
- TGI [3]: 0.0114 µM and 0.00941 µM
- GI50 [4]: 0.00253 µM and 0.0025 µM
- TGI [4]: 0.0944 µM and 0.282 µM
- GI50 [5]: 0.00396 µM and 0.0025 µM
- TGI [5]: > 25 µM
- GI50 [6]: 0.0702 µM and 0.0707 µM
- TGI [6]: > 25 µM
- GI50 [7]: 0.00197 µM and 0.0025 µM
- TGI [7]: 7 µM
- GI50 [8]: 0.00359 µM and 0.0025 µM
- TGI [8]: > 25 µM
- GI50 [9]: 0.000349 µM and < 0.0025 µM
- TGI [9]: 0.00278 µM and < 0.0025 µM
- GI50 [10]: 0.0011 µM and 0.0025 µM
- TGI [10]: 20.1 µM

Structure (SMILES): C#Cc1cccc(Nc2ncnc3ccc(-c4cnc(N)nc4)cc23)c1
- GI50 [1]: 1.62 µM
- TGI [1]: 11.3 µM
- GI50 [2]: 2.59 µM
- TGI [2]: 11 µM
- GI50 [3]: 2.81 µM
- TGI [3]: 11.9 µM
- GI50 [4]: 2.56 µM
- TGI [4]: 12.2 µM
- GI50 [5]: 3.15 µM
- TGI [5]: 21.5 µM
- GI50 [6]: 1.33 µM
- TGI [6]: 14.6 µM
- GI50 [7]: 1.43 µM
- TGI [7]: 5.41 µM
- GI50 [8]: 2.67 µM
- TGI [8]: 14.8 µM
- GI50 [9]: 3.58 µM
- TGI [9]: 15.6 µM
- GI50 [10]: 1.83 µM
- TGI [10]: 11.4 µM

Structure (SMILES): CCCCCCCCCCCCSC1=CC(=O)C=CC1=O
- GI50 [1]: 0.672 µM
- TGI [1]: 4.21 µM
- GI50 [2]: 0.353 µM
- TGI [2]: 2.43 µM
- GI50 [3]: 1.23 µM
- TGI [3]: 3.5 µM
- GI50 [4]: 1.44 µM
- TGI [4]: 4.75 µM
- GI50 [5]: 1.69 µM
- TGI [5]: > 28.6 µM
- GI50 [6]: 11.8 µM
- TGI [6]: > 42 µM
- GI50 [7]: 0.804 µM
- TGI [7]: 3.46 µM
- GI50 [8]: 9.94 µM
- TGI [8]: > 33.5 µM
- GI50 [9]: 15.6 µM
- TGI [9]: > 50 µM
- GI50 [10]: 7.59 µM
- TGI [10]: > 36.9 µM

Structure (SMILES): O=C(C(=O)c1cccnc1)c1cccnc1
- GI50 [1]: > 100 µM
- TGI [1]: > 100 µM
- GI50 [2]: > 100 µM
- TGI [2]: > 100 µM
- GI50 [3]: > 100 µM
- TGI [3]: > 100 µM
- GI50 [4]: > 100 µM
- TGI [4]: > 100 µM
- GI50 [5]: > 100 µM
- TGI [5]: > 100 µM
- GI50 [6]: > 100 µM
- TGI [6]: > 100 µM
- GI50 [7]: > 100 µM
- TGI [7]: > 100 µM
- GI50 [8]: > 100 µM
- TGI [8]: > 100 µM
- GI50 [9]: > 100 µM
- TGI [9]: > 100 µM
- GI50 [10]: > 100 µM
- TGI [10]: > 100 µM

Structure (SMILES): O=c1[nH][nH]c(=O)c2c(O)c(-c3ccccc3)ncc12
- GI50 [1]: 44.5 µM and 143 µM
- TGI [1]: 662 µM
- GI50 [2]: 74.4 µM and 174 µM
- TGI [2]: 553 µM
- GI50 [3]: 32.6 µM
- TGI [3]: 95.1 µM
- GI50 [4]: 40.7 µM and 69.3 µM
- TGI [4]: 800 µM
- GI50 [5]: 47.6 µM and 71.6 µM
- TGI [5]: 841 µM
- GI50 [6]: 60 µM and 160 µM
- TGI [6]: 832 µM
- GI50 [7]: 79.2 µM and 283 µM
- TGI [7]: 706 µM
- GI50 [8]: 19.4 µM and 26.7 µM
- TGI [8]: 42.1 µM and 90.4 µM
- GI50 [9]: 44.1 µM and 205 µM
- TGI [9]: > 1000 µM
- GI50 [10]: 34.2 µM and 73.5 µM
- TGI [10]: 420 µM

Structure (SMILES): CCCCCCCCCCCCCC(=O)NO
- TGI [1]: 28.6 µM
- TGI [2]: 23.7 µM
- TGI [3]: 37.9 µM
- TGI [4]: 60.9 µM
- TGI [5]: 73.2 µM
- TGI [6]: > 74.1 µM
- TGI [7]: > 100 µM
- TGI [8]: 18.2 µM
- TGI [9]: 67 µM
- TGI [10]: 11.5 µM

Structure (SMILES): CCN(CC)CCOc1ccc(NC(=O)C(C(C)C)N2C(=O)/C(=C/c3ccc(Br)cc3)SC2=S)cc1 (stereo not drawn)
- GI50 [1]: 3.17 µM
- TGI [1]: 12.1 µM
- GI50 [2]: 4.96 µM
- TGI [2]: 20.8 µM
- GI50 [3]: 1.87 µM
- TGI [3]: 3.55 µM
- GI50 [4]: 3.41 µM
- TGI [4]: 11.7 µM
- GI50 [5]: 2.3 µM
- TGI [5]: 6.09 µM
- GI50 [6]: 2.89 µM
- TGI [6]: 10.4 µM
- GI50 [7]: 2.35 µM
- TGI [7]: 5.73 µM
- GI50 [8]: 1.76 µM
- TGI [8]: 3.22 µM
- GI50 [9]: 2.1 µM
- TGI [9]: 4.41 µM
- GI50 [10]: 1.81 µM
- TGI [10]: 3.53 µM
